Results taken from patent US11447470B2, “Pyrimidinone-containing compound, preparation method thereof, pharmaceutical composition and application thereof” (YUNNAN UNIVERSITY, priority 2018, dated 2022).
Like-named read-outs stand apart in the source and are kept apart here.

Key:
HIV-1IIIB = experiment: Syncytium inhibition experiment, C8166 cells infected with HIV-1IIIB; assay type: cell-based; settings: Human immunodeficiency virus 1, 72 h; HIV-1IIIB (MOI=0.04) in C8166 cells, syncytium count, three days
Protocol: (§1) C8166 cells infected with HIV-1 were used for determining the anti-HIV biological activity at the cellular level. The specific method was described below.
Syncytium inhibition experiment: 100 μL of C8166 cell suspension (4×10^5/mL) was seeded into each well of 96-well cell culture plates containing 5-fold serial dilutions of the compounds, followed by addition of HIV-1IIIB diluted supernatant (MOI=0.04). Triplicate wells were set for each serial concentration. […] The cells were cultured at 37° C. in a 5% CO2 incubator for three days. The number of the syncytia was counted in five non-overlapping fields of view by using an inverted microscope (100×).

[1] = Cytotoxicity experiment (MTT method) on C8166 cells; assay type: cell-based; settings: human
Protocol: as §1
Cytotoxicity experiment: The toxicity of the compounds on C8166 cells was determined by MTT method. In 96-well cell culture plates, the compounds were subjected to 5-fold serial dilution and 100 μL of C8166 cell suspension (4×10^5/mL) was added into each well. Triplicate wells were set for each concentration. […] The cells were incubated at 37° C. in a 5% CO2 incubator for three days, followed by the addition of MTT solution into each well, and then the cells were incubated at 37° C. for 4 hours. 10% SDS-50% DMF was added into each well and the cells were incubated at 37° C. in a 5% CO2 incubator overnight. After mixing evenly, the OD values were measured by BIO-TEK ELx800 ELISA instrument (determination wavelength: 570 nm; reference wavelength: 630 nm).

Structure (SMILES) | EC50 (HIV-1IIIB) | CC50 at 3 days [1] | CC50 at 3 days ([1]; C8166 cells, MTT, three days, read-out: CC50)
CC(C)c1c(CC2CCCCC2)nc(SCc2n[nH]c(-c3ccc(F)cc3)c2Cl)[nH]c1=O [Compound I-37] | 6 nM | 73 µM | 
O=c1cc(CC2CCCCC2)nc(SCc2n[nH]c(-c3ccc(F)cc3)c2Cl)[nH]1 [Compound I-67] | 847 nM | > 200 µM | 
CCc1c(CC2CCCCC2)nc(SCc2cc(-c3ccc(SC)cc3)[nH]n2)[nH]c1=O [Compound I-25] | 12 nM |  | 
CCc1c(Cc2ccc3c(c2)OCO3)nc(SCc2n[nH]c(-c3ccccc3)c2Cl)[nH]c1=O [Compound I-72] | 81 nM | > 200 µM | 
CCc1c(CC2CCCCC2)nc(SCc2n[nH]c(-c3ccc(Cl)cc3)c2Cl)[nH]c1=O [Compound I-16] | 89 nM |  | 
CCc1c(CC2CCCCC2)nc(SCc2cc(-c3cccc(C(F)(F)F)c3)[nH]n2)[nH]c1=O [Compound I-26] | 302 nM |  | 
CCc1c(CC2CCCCC2)nc(SCc2cc(C3CC3)[nH]n2)[nH]c1=O [Compound I-33] | 25 nM |  | 
CCc1c(Cc2cc(F)cc(F)c2)nc(SCc2n[nH]c(-c3ccc(F)c(F)c3)c2Cl)[nH]c1=O [Compound I-57] | 80 nM | 81.1 µM | 
CCc1c(CC2CCCCC2)nc(SCc2cc(-c3ccc(F)cc3)[nH]n2)[nH]c1=O [Compound I-08] | 20 nM |  | 
CCc1c(CC2CCCCC2)nc(SCc2cc(-c3cccc(Cl)c3)[nH]n2)[nH]c1=O [Compound I-05] | 66 nM |  | 
CCc1c(Cc2c(Cl)cccc2Cl)nc(SCc2n[nH]c(-c3ccc(F)cc3)c2Cl)[nH]c1=O [Compound I-64] | 643 nM | > 200 µM | 
CCc1c(Cc2c(Cl)cccc2Cl)nc(SCc2n[nH]c(-c3ccccc3)c2Cl)[nH]c1=O [Compound I-70] | 92 nM | > 200 µM | 
CC(C)c1c(CC2CCCCC2)nc(SCc2cc(-c3ccc(F)cc3)[nH]n2)[nH]c1=O [Compound I-39] | 16 nM | 99 µM | 
CCc1c(CC2CCCCC2)nc(SCc2n[nH]c(-c3cccc(C(F)(F)F)c3)c2Cl)[nH]c1=O [Compound I-27] | 182 nM |  | 
CCc1c(CC2CCCCC2)nc(SCc2cc(-c3cccc(F)c3)[nH]n2)[nH]c1=O [Compound I-14] | 35 nM |  | 
O=c1cc(CC2CCCCC2)nc(SCc2cc(-c3ccccc3)[nH]n2)[nH]1 [Compound I-44] | 5340 nM |  | 
CCc1c(CC2CCCCC2)nc(SCc2cc(-c3cccc(C)c3)[nH]n2)[nH]c1=O [Compound I-23] | 52 nM |  | 91.4 µM
CCc1c(CC2CCCCC2)nc(SCc2cc(-c3ccccc3)[nH]n2)[nH]c1=O [Compound I-02] | 7 nM |  | 
CCc1c(CC2CCCCC2)nc(SCc2n[nH]c(-c3cccc(Cl)c3)c2Cl)[nH]c1=O [Compound I-06] | 57 nM |  | 
O=c1cc(CC2CCCCC2)nc(SCc2cc(-c3ccc(F)cc3)[nH]n2)[nH]1 [Compound I-45] | 10100 nM |  | 
CCc1c(CC2CCCCC2)nc(SCc2cc(-c3ccc(O)cc3)[nH]n2)[nH]c1=O [Compound I-17] | 4 nM |  | 

Structure (SMILES) | EC50 (HIV-1IIIB) | CC50 at 3 days [1] | CC50 at 3 days ([1]; C8166 cells, MTT, three days, read-out: CC50)
CCc1c(CC2CCCCC2)nc(SCc2cc(-c3ccc(C)cc3C)[nH]n2)[nH]c1=O [Compound I-29] | 476 nM |  | 
Cc1ccnc2c1NC(=O)c1cccnc1N2C1CC1 [NVP, Nevirapine, reference compound] | 58.4 nM |  | 
CCc1c(CC2CCCCC2)nc(SCc2cc(C)[nH]n2)[nH]c1=O [Compound I-32] | 28 nM |  | 
Cc1c(CC2CCCCC2)nc(SCc2n[nH]c(-c3ccc(F)c(F)c3)c2Cl)[nH]c1=O [Compound I-56] | 587 nM | 40.3 µM | 
CCc1c(CC2CCCCC2)nc(SCc2cc(-c3ccc(C(C)C)cc3)[nH]n2)[nH]c1=O [Compound I-28] | 147 nM |  | 
CCc1c(CC2CCCCC2)nc(SCc2n[nH]c(-c3ccccc3)c2Cl)[nH]c1=O [Compound I-01] | 99 nM |  | 
CCc1c(CC2CCCCC2)nc(SCc2n[nH]c(-c3ccc(F)c(F)c3)c2Cl)[nH]c1=O [Compound I-19] | 151 nM |  | 
Cc1cn([C@H]2C[C@H](N=[N+]=[N-])[C@@H](CO)O2)c(=O)[nH]c1=O [AZT, Zidovudine, reference compound] | 49 nM | > 749 µM | 
CCc1c(Cc2ccccc2)nc(SCc2n[nH]c(-c3ccccc3)c2Cl)[nH]c1=O [Compound I-71] | 51 nM | > 200 µM | 
CCc1c(CC2CCCCC2)nc(SCc2cc(-c3cccc(Br)c3)[nH]n2)[nH]c1=O [Compound I-03] | 51 nM |  | 
CCc1c(Cc2c(Cl)cccc2Cl)nc(SCc2cc(-c3ccc(F)c(F)c3)[nH]n2)[nH]c1=O [Compound I-60] | 733 nM | 64.9 µM | 
COc1ccc(-c2cc(CSc3nc(CC4CCCCC4)cc(=O)[nH]3)n[nH]2)cc1 [Compound I-46] | 3960 nM |  | 
CCc1c(CC2CCCCC2)nc(SCc2n[nH]c(-c3ccc(OC)c(Cl)c3)c2Cl)[nH]c1=O [Compound I-11] | 130 nM |  | 
O=c1cc(CC2CCCCC2)nc(SCc2cc(-c3ccc(F)c(F)c3)[nH]n2)[nH]1 [Compound I-59] | 23900 nM | 89.1 µM | 
Cc1c(CC2CCCCC2)nc(SCc2cc(-c3ccc(O)cc3)[nH]n2)[nH]c1=O [Compound I-47] | 142 nM | 61.8 µM | 
CCc1c(CC2CCCCC2)nc(SCc2cc[nH]n2)[nH]c1=O [Compound I-31] | 33 nM |  | 
CC(C)c1c(CC2CCCCC2)nc(SCc2cc(-c3ccccc3)[nH]n2)[nH]c1=O [Compound I-35] | 2 nM | 104 µM | 
CCc1c(CC2CCCCC2)nc(SCc2n[nH]c(-c3cccc(F)c3)c2Cl)[nH]c1=O [Compound I-15] | 71 nM |  | 
CCc1c(Cc2cc(F)cc(F)c2)nc(SCc2cc(-c3ccc(F)c(F)c3)[nH]n2)[nH]c1=O [Compound I-61] | 124 nM | 46.4 µM | 
CC(C)c1c(CC2CCCCC2)nc(SCc2cc(-c3ccc(O)cc3)[nH]n2)[nH]c1=O [Compound I-38] | 3 nM | 156 µM | 
Cc1c(CC2CCCCC2)nc(SCc2n[nH]c(-c3ccc(F)cc3)c2Cl)[nH]c1=O [Compound I-68] | 111 nM | > 200 µM | 

Structure (SMILES) | EC50 (HIV-1IIIB) | CC50 at 3 days [1] | CC50 at 3 days ([1]; C8166 cells, MTT, three days, read-out: CC50)
Cc1c(CC2CCCCC2)nc(SCc2cc(-c3ccccc3)[nH]n2)[nH]c1=O [Compound I-41] | 186 nM |  | 
CCc1c(Cc2cc(F)cc(F)c2)nc(SCc2n[nH]c(-c3ccc(F)cc3)c2Cl)[nH]c1=O [Compound I-63] | 63 nM | > 200 µM | 
CCc1c(Cc2ccc3c(c2)OCO3)nc(SCc2n[nH]c(-c3ccc(F)cc3)c2Cl)[nH]c1=O [Compound I-65] | 370 nM | > 200 µM | 
O=c1cc(CC2CCCCC2)nc(SCc2n[nH]c(-c3ccccc3)c2Cl)[nH]1 [Compound I-48] | 927 nM | 98.9 µM | 
CCc1c(CC2CCCCC2)nc(SCc2cc(C(C)(C)C)[nH]n2)[nH]c1=O [Compound I-30] | 296 nM |  | 
CCc1c(Cc2ccc3c(c2)OCO3)nc(SCc2cc(-c3ccc(F)c(F)c3)[nH]n2)[nH]c1=O [Compound I-62] | 4980 nM | > 200 µM | 
CC(C)c1c(CC2CCCCC2)nc(SCc2cc(-c3ccc(Cl)cc3)[nH]n2)[nH]c1=O [Compound I-36] | 9 nM | 91.2 µM | 
CCc1c(CC2CCCCC2)nc(SCc2n[nH]c(-c3cccc(C)c3)c2Cl)[nH]c1=O [Compound I-24] | 86 nM |  | 
CCc1c(Cc2c(Cl)cccc2Cl)nc(SCc2cc(-c3ccc(F)cc3)[nH]n2)[nH]c1=O [Compound I-51] | 602 nM | 45.5 µM | 
CCc1c(CC2CCCCC2)nc(SCc2cc(-c3ccc(F)c(F)c3)[nH]n2)[nH]c1=O [Compound I-18] | 162 nM |  | 
CCc1c(Cc2cc(F)cc(F)c2)nc(SCc2n[nH]c(-c3ccccc3)c2Cl)[nH]c1=O [Compound I-69] | 55 nM | > 200 µM | 
CCc1c(CC2CCCCC2)nc(SCc2n[nH]c(-c3ccc(F)cc3)c2Cl)[nH]c1=O [Compound I-09] | 18 nM |  | 
Cc1c(CC2CCCCC2)nc(SCc2cc(-c3ccc(F)cc3)[nH]n2)[nH]c1=O [Compound I-42] | 355 nM |  | 
COc1ccc(-c2cc(CSc3nc(CC4CCCCC4)c(C)c(=O)[nH]3)n[nH]2)cc1 [Compound I-43] | 194 nM |  | 
CCc1c(CC2CCCCC2)nc(SCc2n[nH]c(-c3ccc(C)cc3)c2Cl)[nH]c1=O [Compound I-22] | 138 nM |  | 
CCc1c(CC2CCCCC2)nc(SCc2cc(-c3ccccn3)[nH]n2)[nH]c1=O [Compound I-34] | 23 nM |  | 
CCc1c(CC2CCCCC2)nc(SCc2cc(-c3ccc(Cl)c(Cl)c3)[nH]n2)[nH]c1=O [Compound I-12] | 310 nM |  | 
CCc1c(CC2CCCCC2)nc(SCc2cc(-c3ccc(Cl)cc3)[nH]n2)[nH]c1=O [Compound I-07] | 18 nM |  | 
CCc1c(CC2CCCCC2)nc(SCc2cc(-c3ccc(F)cc3F)[nH]n2)[nH]c1=O [Compound I-20] | 42 nM |  | 
CCc1c(CC2CCCCC2)nc(SCc2cc(-c3ccc(OC)cc3)[nH]n2)[nH]c1=O [Compound I-10] | 23 nM |  | 
CCc1c(CC2CCCCC2)nc(SCc2n[nH]c(-c3cccc(Br)c3)c2Cl)[nH]c1=O [Compound I-04] | 101 nM |  | 
